Experimental data reported in article PMC3904705, “In vivo monoubiquitination of anaplerotic phosphoenolpyruvate carboxylase occurs at Lys624 in germinating sorghum seeds” (Journal of Experimental Botany, 2013).
Where two headings read alike, the source gives them in different places.

T1: DeUB-PEPC (in vitro deubiquitinated p107 homotetrameric PEPC of germinating sorghum seeds; CP21) (Sorghum bicolor, UniProt P29195)
T1 construct: p107 homotetramer; not phosphorylated at Ser7
T1 sequence (P29195 1-960): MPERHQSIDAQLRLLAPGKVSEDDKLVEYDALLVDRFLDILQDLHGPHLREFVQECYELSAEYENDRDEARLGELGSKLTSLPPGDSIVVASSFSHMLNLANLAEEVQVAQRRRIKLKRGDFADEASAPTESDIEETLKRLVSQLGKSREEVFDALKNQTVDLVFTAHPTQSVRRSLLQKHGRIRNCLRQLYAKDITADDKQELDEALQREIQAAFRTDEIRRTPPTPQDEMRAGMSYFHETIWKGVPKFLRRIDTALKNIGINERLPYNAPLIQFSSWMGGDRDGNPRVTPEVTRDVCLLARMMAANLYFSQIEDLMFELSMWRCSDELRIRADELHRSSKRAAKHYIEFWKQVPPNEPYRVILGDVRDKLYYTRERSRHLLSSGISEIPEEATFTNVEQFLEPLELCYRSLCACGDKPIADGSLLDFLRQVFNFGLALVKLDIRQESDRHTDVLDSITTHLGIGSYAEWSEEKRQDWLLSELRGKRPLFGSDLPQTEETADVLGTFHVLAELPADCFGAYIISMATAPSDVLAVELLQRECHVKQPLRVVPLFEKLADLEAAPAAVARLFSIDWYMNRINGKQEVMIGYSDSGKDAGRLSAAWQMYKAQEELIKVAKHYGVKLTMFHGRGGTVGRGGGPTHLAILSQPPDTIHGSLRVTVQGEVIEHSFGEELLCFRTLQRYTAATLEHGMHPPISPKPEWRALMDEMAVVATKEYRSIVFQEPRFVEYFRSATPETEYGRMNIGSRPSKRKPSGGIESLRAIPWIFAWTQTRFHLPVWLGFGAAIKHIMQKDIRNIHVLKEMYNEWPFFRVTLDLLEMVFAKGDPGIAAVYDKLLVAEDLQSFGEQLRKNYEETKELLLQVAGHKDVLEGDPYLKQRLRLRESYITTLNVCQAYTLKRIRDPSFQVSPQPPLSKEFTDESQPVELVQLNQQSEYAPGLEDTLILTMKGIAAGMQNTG

T2: UB-PEPC (purified monoubiquitinated p110:p107 heterotetrameric PEPC of germinating sorghum seeds; CP21) (Sorghum bicolor, UniProt P29195)
T2 construct: native, purified from 48 h germinated seeds, untagged; intact N-terminus, not phosphorylated at Ser7; heterotetramer ~460 kDa of p110 and p107 in equivalent ratio; p110 = p107 monoubiquitinated at Lys624
T2 sequence (P29195 1-960): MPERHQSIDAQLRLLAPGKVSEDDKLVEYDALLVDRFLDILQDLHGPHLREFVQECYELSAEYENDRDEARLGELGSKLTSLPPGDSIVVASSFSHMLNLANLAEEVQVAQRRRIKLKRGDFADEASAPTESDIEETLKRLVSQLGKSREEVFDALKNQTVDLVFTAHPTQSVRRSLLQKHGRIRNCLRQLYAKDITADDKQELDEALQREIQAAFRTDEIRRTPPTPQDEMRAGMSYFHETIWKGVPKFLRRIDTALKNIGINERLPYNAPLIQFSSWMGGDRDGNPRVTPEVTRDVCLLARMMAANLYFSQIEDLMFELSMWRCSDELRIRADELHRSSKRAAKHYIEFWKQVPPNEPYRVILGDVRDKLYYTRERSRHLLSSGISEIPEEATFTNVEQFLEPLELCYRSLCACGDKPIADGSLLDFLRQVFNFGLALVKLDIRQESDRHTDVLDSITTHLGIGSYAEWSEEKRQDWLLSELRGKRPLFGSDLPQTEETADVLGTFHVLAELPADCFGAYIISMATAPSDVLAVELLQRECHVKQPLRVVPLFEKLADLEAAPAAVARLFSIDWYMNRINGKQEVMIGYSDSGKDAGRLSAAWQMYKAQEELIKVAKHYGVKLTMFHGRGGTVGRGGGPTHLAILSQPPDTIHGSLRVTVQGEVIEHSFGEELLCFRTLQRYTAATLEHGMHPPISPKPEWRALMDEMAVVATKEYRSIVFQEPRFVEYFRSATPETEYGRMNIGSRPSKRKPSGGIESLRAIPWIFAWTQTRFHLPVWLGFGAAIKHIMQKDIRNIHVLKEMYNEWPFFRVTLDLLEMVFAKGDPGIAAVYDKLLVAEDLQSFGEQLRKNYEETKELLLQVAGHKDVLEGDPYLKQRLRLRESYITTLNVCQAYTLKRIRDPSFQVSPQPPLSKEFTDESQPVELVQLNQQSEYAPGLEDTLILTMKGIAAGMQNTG


What was measured:
[1] = molecular target: T1, DeUB-PEPC (in vitro deubiquitinated p107 homotetrameric PEPC of germinating sorghum seeds; CP21); test: biochemical; parameters: PEPC activity of purified enzyme with 2 mM metabolite effector at subsaturating 0.1 mM PEP, relative to control; conditions: pH 7.3, 0.1 mM PEP; for remaining activity at 2000 µM: read-out: % of control remaining
Protocol: (§1) The impact of various metabolite effectors (2mM each) on the activity of the purified, monoubiquitinated heterotetrameric sorghum seed PEPC (UB-PEPC) versus the in vitro deubiquitinated homotetrameric enzyme (deUB-PEPC) was assessed using suboptimal assay conditions (0.1mM PEP, pH 7.3 and 8.0). With the exception of L-malate, monoubiquitination of germinating sorghum seed PEPC (CP21) exerted little to no influence in the response to the metabolites tested (Supplementary Table S2 at JXB online). […] In addition, the K m(PEP) value of UB-PEPC appeared to be slightly higher than that of deUB-PEPC, although the differences were not statistically significant (Table 1). Similarly, monoubiquitination of COS and harsh hakea Class-1 PEPCs is inhibitory, as it enhances sensitivity to allosteric inhibitors such as L-malate and L-aspartate, while interfering with the enzyme’s ability to bind PEP ([Uhrig et al., 2008]; [Shane et al., 2013]). Apparent K m and IC50 (concentration of inhibitor producing 50% inhibition) values were calculated using a computer kinetics program as previously described ([Tripodi et al., 2005]). All kinetic parameters are the means of three independent experiments and are reproducible to within ±15% (SE) of the mean value. Stock solutions of metabolites were made equimolar with MgCl2 and adjusted to pH 7.5.

[2] = molecular target: T1, DeUB-PEPC (in vitro deubiquitinated p107 homotetrameric PEPC of germinating sorghum seeds; CP21); test: biochemical; parameters: PEPC activity with 2 mM metabolite at subsaturating 0.1 mM PEP, as per cent of control; conditions: pH 8.0, 0.1 mM PEP; for remaining activity at 2000 µM: read-out: % of control remaining
Protocol: as §1

[3] = molecular target: T2, UB-PEPC (purified monoubiquitinated p110:p107 heterotetrameric PEPC of germinating sorghum seeds; CP21); test: biochemical; parameters: PEPC activity of purified enzyme with 2 mM metabolite effector at subsaturating 0.1 mM PEP, relative to control; conditions: pH 7.3, 0.1 mM PEP; read-out: % of control remaining
Protocol: as §1

[4] = molecular target: T2, UB-PEPC (purified monoubiquitinated p110:p107 heterotetrameric PEPC of germinating sorghum seeds; CP21); test: biochemical; parameters: PEPC activity with 2 mM metabolite at subsaturating 0.1 mM PEP, as per cent of control; conditions: pH 8.0, 0.1 mM PEP; read-out: % of control remaining
Protocol: as §1

[5] = molecular target: T1, DeUB-PEPC (in vitro deubiquitinated p107 homotetrameric PEPC of germinating sorghum seeds; CP21); test: spectrophotometric, NADH at […] nm, coupled with malate dehydrogenase; format: biochemical; conditions: read-out: pH 7.3 / DeUB-PEPC
[6] = molecular target: p107, non-ubiquitinated 107 kDa plant-type PEPC (PTPC) subunit encoded by sorghum CP21 (Sorghum bicolor (endogenous in germinated seeds)) (UniProt P29195); test: SEC; Superdex-200 HR 16/60 gel filtration FPLC (calibrated column) of native PEPC purified from 48 h germinated sorghum seeds, in buffer E (50 mM HEPES-KOH pH 8.0, 5 mM MgCl2, 1 mM DTT, 20% glycerol, 100 mM KCl, phosphatase inhibitors); fractions immunoblotted with anti-COS PTPC; native molecular mass estimated as ~460 kDa
[7] = substrate: C=C(OP(=O)(O)O)C(=O)O; test: purified protein; format: biochemical, Sorghum bicolor; conditions: pH 8.0, 25 °C, 5 mM NaHCO3, 5 mM MgCl2, apparent Km, deubiquitinated enzyme

| Molecule | remaining activity at 2000 µM [1] [%] | remaining activity at 2000 µM [3] [%] | remaining activity at 2000 µM [2] [%] | remaining activity at 2000 µM [4] [%] | also measured |
| --- | --- | --- | --- | --- | --- |
| Nc1ncnc2c1ncn2[C@@H]1O[C@H](COP(=O)(O)OP(=O)(O)OP(=O)(O)O)[C@@H](O)[C@H]1O [ATP] |  |  |  |  | % of control remaining ([1]; 2000 µM): 88%; % of control remaining ([2]; 2000 µM): 111% |
| N[C@@H](CC(=O)O)C(=O)O [Aspartate] | 91 | 94 | 109 | 109 |  |
| O=P(O)(O)OC1O[C@H](CO)[C@@H](O)[C@H](O)[C@H]1O (stereo partly shown) [Glc-1-P] | 111 | 115 | 116 | 116 |  |
| O=P(O)(O)OC[C@H]1OC(O)[C@H](O)[C@@H](O)[C@@H]1O (stereo partly shown) [Glc-6-P] | 112 | 127 | 120 | 121 |  |
| O=P(O)(O)OCC(O)CO (stereo not shown) [Glycerol-3-P] | 108 | 107 | 120 | 124 |  |
| O=C(O)C[C@H](O)C(=O)O [L-malate] | 67 | 53 |  |  | IC50 [5]: 3.62 ± 0.24 mM |
| O=C(O)CC(O)C(=O)O (stereo not shown) [Malate] |  |  | 93 | 93 |  |
| O=C[C@H](O)[C@H](O)[C@H](O)COP(=O)(O)O [Ribose-5-P] | 98 | 98 | 105 | 105 |  |
| O=C(O)C[C@H](C(=O)O)[C@@H](O)C(=O)O [isocitrate] | 47 | 47 | 38 | 38 | IC50 [5]: 1.37 ± 0.12 mM |
| p110, 110 kDa plant-type PEPC (PTPC) subunit encoded by sorghum CP21, monoubiquitinated at Lys624 (from UniProt P29195 1-960) (enzyme) |  |  |  |  | stoichiometry N (subunits in the oligomer) [6]: 4 |
| DeUB-PEPC (in vitro deubiquitinated p107 homotetrameric PEPC of germinating sorghum seeds; CP21) (Sorghum bicolor) (protein, p107 homotetramer; not phosphorylated at Ser7) MPERHQSIDAQLRLLAPGKVSEDDKLVEYDALLVDRFLDILQDLHGPHLREFVQECYELSAEYENDRDEARLGELGSKLTSLPPGDSIVVASSFSHMLNLANLAEEVQVAQRRRIKLKRGDFADEASAPTESDIEETLKRLVSQLGKSREEVFDALKNQTVDLVFTAHPTQSVRRSLLQKHGRIRNCLRQLYAKDITADDKQELDEALQREIQAAFRTDEIRRTPPTPQDEMRAGMSYFHETIWKGVPKFLRRIDTALKNIGINERLPYNAPLIQFSSWMGGDRDGNPRVTPEVTRDVCLLARMMAANLYFSQIEDLMFELSMWRCSDELRIRADELHRSSKRAAKHYIEFWKQVPPNEPYRVILGDVRDKLYYTRERSRHLLSSGISEIPEEATFTNVEQFLEPLELCYRSLCACGDKPIADGSLLDFLRQVFNFGLALVKLDIRQESDRHTDVLDSITTHLGIGSYAEWSEEKRQDWLLSELRGKRPLFGSDLPQTEETADVLGTFHVLAELPADCFGAYIISMATAPSDVLAVELLQRECHVKQPLRVVPLFEKLADLEAAPAAVARLFSIDWYMNRINGKQEVMIGYSDSGKDAGRLSAAWQMYKAQEELIKVAKHYGVKLTMFHGRGGTVGRGGGPTHLAILSQPPDTIHGSLRVTVQGEVIEHSFGEELLCFRTLQRYTAATLEHGMHPPISPKPEWRALMDEMAVVATKEYRSIVFQEPRFVEYFRSATPETEYGRMNIGSRPSKRKPSGGIESLRAIPWIFAWTQTRFHLPVWLGFGAAIKHIMQKDIRNIHVLKEMYNEWPFFRVTLDLLEMVFAKGDPGIAAVYDKLLVAEDLQSFGEQLRKNYEETKELLLQVAGHKDVLEGDPYLKQRLRLRESYITTLNVCQAYTLKRIRDPSFQVSPQPPLSKEFTDESQPVELVQLNQQSEYAPGLEDTLILTMKGIAAGMQNTG |  |  |  |  | Km [7]: 36 ± 5 µM |
